{
  "source": "patent US20240294508A1",
  "about": "“RIP1 MODULATORS INCLUDING AZETIDINE CYCLIC UREAS, PREPARATIONS, AND USES THEREOF” (SIRONAX LTD., priority 2021, published 2024)",
  "data": [
    {"test_system": "HT-29 cells", "experiment": "HT29 cells 0FBS assay in vitro: TNF-α/SMAC mimetic/zVAD-FMK induced necroptosis, CellTiter-Glo cell viability (RIP1 inhibitory activity)", "format": "cell-based", "details": "Homo sapiens, FBS free medium, TNF-α (10 ng/ml) + SMAC mimetic (6 uM) + zVAD-FMK (10 μM), 20 hours, geometric mean EC50", "excerpt": "Protocol for HT29 Cells 0FBS Assay In Vitro\n• Cell line: HT-29 (ATCC® HTB-38™) • Culture medium: McCOY's 5A, Gibco, Cat No. 16600-082 • FBS, Gibco, Cat No. 10099-141C • Trypsin: Gibco, Cat No. 25200-056 • DMSO: Sigma, Cat No. 67-68-5, 1L • Assay plate: Corning #3903 • Compound dilution plate: Corning #3357 • Inducers: TNFα, GenScript, Cat No. Z01001-50, • SmacM, Cat. No., HY-15989, MedChemExpress (MCE) • Z_VAD FMK, TargetMol, T6013 • Cell Titer-Glo® Luminescent Cell Viability Assay Kit: Promega, Cat No. G7573 • EnVision: PerkinElmer, 2105-0010\n2. Cell Seeding of HT-29 Cells\n1) HT-29 cells were checked every day to make sure they are healthy and growing as expected. They were split sub-culturing when were approximately 80% confluent.\n2) First pre-warm the culture medium of McCOY's 5A medium (Gibco, Cat No. 16600-082) with 10% FBS (Gibco, Cat No. 10099-141C) in 37° C. water bath for at least 30 min.\n3) Growing cells to desired level of confluency 80% in a T75 flask, aspirate the medium, and wash with warm PBS two times.\n4) Add 2-3 ml fresh warm trypsin (Gibco, Cat No. 25200-056) solution. Transfer the flask to a 37° C. incubator.\n5) After 5 minutes, tap the side of the flask, and examine the flask under a microscope for lifting. If necessary, return the cells to the incubator for an additional 5-10 minutes, with occasional tapping, until lifting is complete.\n6) Quickly neutralize the trypsin reaction by adding 6-9 ml cell culture medium, then transfer the cells to sterile 15 ml conical tubes. Pellet the cells by centrifugation at 300×g for 7 minutes, then decant the supernatant.\n7) Resuspend the cells in fresh cell culture medium. Do cell counting with hemocytometer.\n8) Seed 100 μl of 5,000 cells into each well of the sterile 96-well cell culture plate (Corning 3903) and culture overnight at 37° C. with 5% CO2.\n3. Compounds Titration and Treatment of HT-29 Cells\n1) All batches of compounds (CPDs0 (e.g., compound 1-169) were dissolved in DMSO (Dimethyl sulfoxide) as 20 mM stock solution.\n2) Take 3 ul 20 mM stock solution of CPDs to […] DMSO and mix well, continue the titration ratio of 1:3 (20 ul CPDs+40 ul DMSO), e.g., to give solutions of CPDS at 6.6 mM, 2.2 mM, etc., till the 10 points end.\n3) Take out assay plates with HT-29 cells from incubator, remove all culture medium then wash 1 time with 1×PBS, and change fresh McCOY's 5A medium of FBS free with a cocktail of TNF-α (10 ng/ml), the SMAC mimetic (6 uM) and zVAD-FMK (10 μM) to stimulate the HT-29 cells to increase pRIPK1 levels and necroptosis.\n4) Add 0.5 μL of the diluted compound to the corresponding 96-well assay plates.\n5) Incubate the assay plates for 20 hours at 37° C. with 5% CO2.\n4. Performing Cell Viability Detection of HT-29 Cells after Treated with Compounds\n1) The CellTiter-Glo® Luminescent Cell Viability Assay was employed to detect the ATP levels of viable HT-29 cells.\n2) Equilibrate the CellTiter-Glo® buffer and the lyophilized substrate to room temperature prior to use.\n3) Resuspend the CellTiter-Glo® substrate with CellTiter-Glo® buffer, mix by gently vortexing to obtain a homogeneous solution.\n4) Pipette 20 μl the enzyme/substrate mixture by multi-channel pipette into the 96-well assay plates from step 5) under the Compounds titration and treatment stage.\n5) Place the plates on an orbital shaker and mix the contents for 3 minutes to induce cell lysis.\n6) Then allow the plates to incubate at room temperature for 10 minutes to stabilize luminescent signal.\n7) Read and record luminescence signal with EnVision.\n8) The geometric mean EC50 of the compounds were calculated from 10 points response dose with duplicate. In Table 2, activity is provided as follows: +++=0.1 nM≤EC50<100 nM; ++=100 nM≤EC5 1000 nM; […].", "units": {"EC50": "nM"}, "values": [
      {"smiles": "Cc1c(C(N)=O)nn(C)c1-c1cc(OC2CN(C(=O)N3N=CC[C@H]3c3cc(F)cc(C#N)c3)C2)c(F)cn1", "note": "[Compound 58, (S)-5-(4-((1-(5-(3-cyano-5-fluorophenyl)-4,5-dihydro-1H-pyrazole-1-carbonyl)azetidin-3-yl)oxy)-5-fluoropyridin-2-yl)-1,4-dimethyl-1H-pyrazole-3-carboxamide]", "EC50": "0.1 to 100"},
      {"smiles": "Cc1ncc(C2CC=NN2C(=O)N2CC(Oc3nc(-c4c(C)cnn4C)ncc3F)C2)s1", "note": "(centres unmarked) [Compound 109, (3-((2-(1,4-dimethyl-1H-pyrazol-5-yl)-5-fluoropyrimidin-4-yl)oxy)azetidin-1-yl)(5-(2-methylthiazol-5-yl)-4,5-dihydro-1H-pyrazol-1-yl)methanone]", "EC50": "0.1 to 100"},
      {"smiles": "Cc1c(-c2cc(OC3CN(C(=O)N4N=CCC4c4cc(F)cc(F)c4F)C3)c(F)cn2)nn(C)c1C(N)=O", "note": "(centres unmarked) [Compound 110, 3-(5-fluoro-4-((1-(5-(2,3,5-trifluorophenyl)-4,5-dihydro-1H-pyrazole-1-carbonyl)azetidin-3-yl)oxy)pyridin-2-yl)-1,4-dimethyl-1H-pyrazole-5-carboxamide]", "EC50": "0.1 to 100"},
      {"smiles": "Cc1nn(-c2cc(OC3CN(C(=O)N4N=CC[C@H]4c4ccccc4)C3)c(F)cn2)c(C)c1S(N)(=O)=O", "note": "[Compound 113, (S)-1-(5-fluoro-4-((1-(5-phenyl-4,5-dihydro-1H-pyrazole-1-carbonyl)azetidin-3-yl)oxy)pyridin-2-yl)-3,5-dimethyl-1H-pyrazole-4-sulfonamide]", "EC50": "0.1 to 100"},
      {"smiles": "Cc1c(-c2cc(OC3CN(C(=O)N4N=CC[C@H]4c4cc(F)cc(F)c4F)C3)c(F)cn2)nn(C)c1C(N)=O", "note": "[Compound 126, 3-(5-fluoro-4-((1-(5-(2,3,5-trifluorophenyl)-4,5-dihydro-1H-pyrazole-1-carbonyl)azetidin-3-yl)oxy)pyridin-2-yl)-1,4-dimethyl-1H-pyrazole-5-carboxamide]", "EC50": "0.1 to 100"},
      {"smiles": "Cn1nc(N)cc1-c1cc(OC2CN(C(=O)N3N=CC[C@H]3c3cc(F)cc(C#N)c3)C2)c(F)cn1", "note": "[Compound 35, (S)-3-(1-(3-((2-(3-amino-1-methyl-1H-pyrazol-5-yl)-5-fluoropyridin-4-yl)oxy)azetidine-1-carbonyl)-4,5-dihydro-1H-pyrazol-5-yl)-5-fluorobenzonitrile]", "EC50": "0.1 to 100"},
      {"smiles": "Cc1ncc(C2CC=NN2C(=O)N2CC(Oc3cc(-c4c(C)c(N)nn4C)ncc3F)C2)s1", "note": "(centres unmarked) [Compound 107, (3-((2-(3-amino-1,4-dimethyl-1H-pyrazol-5-yl)-5-fluoropyridin-4-yl)oxy)azetidin-1-yl)(5-(2-methylthiazol-5-yl)-4,5-dihydro-1H-pyrazol-1-yl) methanone]", "EC50": "0.1 to 100"},
      {"smiles": "Cc1cnn(C)c1-c1csc(OC2CN(C(=O)N3N=CC[C@H]3c3cc(F)cc(F)c3)C2)n1", "note": "[Compound 146, (S)-(5-(3,5-difluorophenyl)-4,5-dihydro-1H-pyrazol-1-yl)(3-((4-(1,4-dimethyl-1H-pyrazol-5-yl)thiazol-2-yl)oxy)azetidin-1-yl)methanone]", "EC50": "0.1 to 100"},
      {"smiles": "Cn1ncc(C#N)c1-c1cc(OC2CN(C(=O)N3N=CC[C@H]3c3cc(F)cc(C#N)c3)C2)c(F)cn1", "note": "[Compound 9, (S)-5-(4-((1-(5-(3-cyano-5-fluorophenyl)-4,5-dihydro-1H-pyrazole-1-carbonyl)azetidin-3-yl)oxy)-5-fluoropyridin-2-yl)-1-methyl-1H-pyrazole-4-carbonitrile]", "EC50": "0.1 to 100"},
      {"smiles": "CNC(=O)c1c(C)nn(-c2cc(OC3CN(C(=O)N4N=CC[C@H]4c4cc(F)cc(C#N)c4)C3)c(F)cn2)c1C", "note": "[Compound 80, (S)-1-(4-((1-(5-(3-cyano-5-fluorophenyl)-4,5-dihydro-1H-pyrazole-1-carbonyl)azetidin-3-yl)oxy)-5-fluoropyridin-2-yl)-N,3,5-trimethyl-1H-pyrazole-4-carboxamide]", "EC50": "0.1 to 100"},
      {"smiles": "Cc1cnn(C)c1-c1ncc(F)c(OC2CN(C(=O)N3N=CC[C@H]3c3cncc(F)c3)C2)n1", "note": "[Compound 24, (S)-(3-((2-(1,4-dimethyl-1H-pyrazol-5-yl)-5-fluoropyrimidin-4-yl)oxy)azetidin-1-yl)(5-(5-fluoropyridin-3-yl)-4,5-dihydro-1H-pyrazol-1-yl)methanone]", "EC50": "0.1 to 100"},
      {"smiles": "Cn1nccc1-c1cc(OC2CN(C(=O)N3N=CC[C@H]3c3cncc(F)c3)C2)c(F)cn1", "note": "[Compound 27, (S)-(3-((5-fluoro-2-(1-methyl-1H-pyrazol-5-yl)pyridin-4-yl)oxy)azetidin-1-yl)(5-(5-fluoropyridin-3-yl)-4,5-dihydro-1H-pyrazol-1-yl)methanone]", "EC50": "0.1 to 100"},
      {"smiles": "COc1ncccc1-c1ncc(F)c(OC2CN(C(=O)N3N=CC[C@H]3c3cc(F)cc(F)c3)C2)n1", "note": "[Compound 163, (S)-(5-(3,5-difluorophenyl)-4,5-dihydro-1H-pyrazol-1-yl)(3-((5-fluoro-2-(2-methoxypyridin-3-yl)pyrimidin-4-yl)oxy)azetidin-1-yl)methanone]", "EC50": "0.1 to 100"},
      {"smiles": "Cc1cnn(C)c1-c1cc(OC2CN(C(=O)N3N=CCC3c3ccccn3)C2)c(F)cn1", "note": "(centres unmarked) [Compound 100, (3-((2-(1,4-dimethyl-1H-pyrazol-5-yl)-5-fluoropyridin-4-yl)oxy)azetidin-1-yl)(5-(pyridin-2-yl)-4,5-dihydro-1H-pyrazol-1-yl)methanone]", "EC50": "0.1 to 100"},
      {"smiles": "CCNC(=O)c1c(C)nn(-c2cc(OC3CN(C(=O)N4N=CC[C@H]4c4cc(F)cc(C#N)c4)C3)c(F)cn2)c1C", "note": "[Compound 87, (S)-1-(4-((1-(5-(3-cyano-5-fluorophenyl)-4,5-dihydro-1H-pyrazole-1-carbonyl)azetidin-3-yl)oxy)-5-fluoropyridin-2-yl)-N-ethyl-3,5-dimethyl-1H-pyrazole-4-carboxamide]", "EC50": "0.1 to 100"},
      {"smiles": "Cn1ncc(F)c1-c1cc(OC2CN(C(=O)N3N=CC[C@H]3c3cncc(C#N)c3)C2)c(F)cn1", "note": "[Compound 46, (S)-5-(1-(3-((5-fluoro-2-(4-fluoro-1-methyl-1H-pyrazol-5-yl)pyridin-4-yl)oxy)azetidine-1-carbonyl)-4,5-dihydro-1H-pyrazol-5-yl)nicotinonitrile]", "EC50": "0.1 to 100"},
      {"smiles": "Cc1cn(C)c(-c2cc(OC3CN(C(=O)N4N=CC[C@H]4c4cc(F)cc(C#N)c4)C3)c(F)cn2)n1", "note": "[Compound 23, (S)-3-(1-(3-((2-(1,4-dimethyl-1H-imidazol-2-yl)-5-fluoropyridin-4-yl)oxy)azetidine-1-carbonyl)-4,5-dihydro-1H-pyrazol-5-yl)-5-fluorobenzonitrile]", "EC50": "0.1 to 100"},
      {"smiles": "Cc1cnn(C)c1-c1cc(OC2CN(C(=O)N3N=CCC3c3cc(F)cc(F)c3F)C2)c(F)cn1", "note": "(centres unmarked) [Compound 116, (3-((2-(1,4-dimethyl-1H-pyrazol-5-yl)-5-fluoropyridin-4-yl)oxy)azetidin-1-yl)(5-(2,3,5-trifluorophenyl)-4,5-dihydro-1H-pyrazol-1-yl)methanone]", "EC50": "0.1 to 100"},
      {"smiles": "Cc1nc(C2CC=NN2C(=O)N2CC(Oc3cc(-c4ccnn4C)c(F)cc3F)C2)cs1", "note": "(centres unmarked) [Compound 132, (3-(2,4-difluoro-5-(1-methyl-1H-pyrazol-5-yl)phenoxy)azetidin-1-yl)(5-(2-methylthiazol-4-yl)-4,5-dihydro-1H-pyrazol-1-yl)methanone]", "EC50": "0.1 to 100"},
      {"smiles": "Cn1nccc1-c1ncc(F)c(OC2CN(C(=O)N3N=CC[C@H]3c3cc(F)cc(C#N)c3)C2)n1", "note": "[Compound 1, (S)-3-fluoro-5-(1-(3-((5-fluoro-2-(1-methyl-1H-pyrazol-5-yl)pyrimidin-4-yl)oxy)azetidine-1-carbonyl)-4,5-dihydro-1H-pyrazol-5-yl)benzonitrile]", "EC50": "0.1 to 100"}
    ]}
  ]
}
